{"source": "patent US7973050B2", "about": "“Enantiomeric compounds with antibacterial activity” (Crestone, Inc., priority 2006, dated 2011)", "key": {"[1]": {"biological_target": "Clostridium difficile MetRS (Clostridioides difficile, UniProt Q181D9, C642S)", "sequence (Q181D9 2-645 C642S)": "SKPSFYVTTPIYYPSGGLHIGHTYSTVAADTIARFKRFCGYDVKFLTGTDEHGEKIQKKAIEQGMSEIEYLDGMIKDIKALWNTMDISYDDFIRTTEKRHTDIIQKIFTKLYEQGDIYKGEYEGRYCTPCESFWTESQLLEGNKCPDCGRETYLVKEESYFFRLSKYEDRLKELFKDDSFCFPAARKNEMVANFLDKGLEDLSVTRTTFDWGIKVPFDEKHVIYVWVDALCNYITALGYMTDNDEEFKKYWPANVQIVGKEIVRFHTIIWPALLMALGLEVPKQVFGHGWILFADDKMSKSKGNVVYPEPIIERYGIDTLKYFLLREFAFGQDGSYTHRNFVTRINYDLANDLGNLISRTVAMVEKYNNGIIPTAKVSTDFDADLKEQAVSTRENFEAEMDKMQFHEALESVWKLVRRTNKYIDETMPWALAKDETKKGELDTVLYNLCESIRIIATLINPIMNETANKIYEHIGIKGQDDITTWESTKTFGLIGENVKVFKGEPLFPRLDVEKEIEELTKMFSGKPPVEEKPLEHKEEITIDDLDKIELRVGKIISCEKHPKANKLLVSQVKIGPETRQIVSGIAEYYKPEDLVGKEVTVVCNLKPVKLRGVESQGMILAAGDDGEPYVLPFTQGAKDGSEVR", "experiment": "C. difficile MetRS inhibition (tRNA charging SPA assay)", "type": "biochemical", "method": "Compounds of the present invention were assayed to determine their ability to inhibit MetRS. Assays were performed as follows:\nEach reaction was started by adding 20 μl appropriately diluted pure enzyme (pre-incubated with inhibitor) to 25 μl reaction mix for 10 min at room temperature. The reaction is terminated by the addition of 150 μl 167 mM sodium citrate, pH 2.15 containing phosphodiesterase (PDE) SPA beads (0.833 mg/ml). The binding of the radiolabelled product to the bead brings the isotope into close enough proximity to allow radiation from the tritium to excite the scintillant within the bead. Any unbound radiolabel is not close enough to the scintillant to allow this energy transfer, so no signal is generated. Following termination of the reaction, plates are spun at 2500 rpm for 5 min in a Mistral 3000E plate centrifuge (or alternatively allowed to stand for 1 hour). The assay is conducted in 96-well Optiplates (Packard). Plates are counted on a TopCount. (Packard 96 well counter).\nMixed E. coli MRE 600 tRNA and ATP were purchased from Boehringer-Mannheim, L-[methyl-^3H]methionine and phosphodiesterase scintillation proximity (SPA) beads from Amersham Pharmacia Biotech and other reagents from Sigma."}, "rat MetRS": {"test_system": "rat MetRS", "experiment": "Mammalian MetRS inhibition (selectivity)", "type": "biochemical", "conditions": "mammalian enzyme"}, "C. difficile [2]": {"test_system": "C. difficile", "experiment": "MIC90 against C. difficile clinical isolates, agar dilution (CLSI)", "type": "cell-based", "conditions": "Clostridioides difficile, read-out: MIC90 against Clostridium difficile"}, "C. difficile [3]": {"test_system": "C. difficile", "experiment": "C. difficile-infected hamster survival study", "type": "in vivo", "method": "Animal studies were performed to determine the efficacy of MetRS inhibitors for treating C. difficile-infections. The MetRS inhibitors tested were 5-[3-((R)-6,8-Dibromo-chroman-4-ylamino)-propylamino]-4H-thieno[3,2-b]pyridine-7-one (both racemic mixture and the R enantiomer) and 5-[3-((R)-8-Bromo-6-chloro-chroman-4-ylamino)-propylamino]-4H-thieno[3,2-b]pyridin-7-one. Also tested was 2-(3-{3,5-Dibromo-2-[2-(4-methyl-thiazol-5-yl)-ethoxy]-benzylamino}-propylamino)-1H-quinolin-4-one.\nResults were compared to C. difficile-infected hamsters treated with the conventional antibiotic, vancomycin. Infected hamsters were treated with either a solution or suspension of a MetRS inhibitor at 5 to 50 mg/kg or vancomycin at 2.5, 5 or 25 mg/kg. There were eight hamsters per group with the final endpoint of the experiment being survival. Expired hamsters were examined for GI condition."}, "[4]": {"test_system": "C. difficile clinical isolates (spore production)", "experiment": "C. difficile sporulation on agar with subMIC drug", "type": "cell-based, Clostridium difficile", "conditions": "96 hours"}, "[5]": {"conditions": "agar dilution, clinical isolates, 24 hours at 35° C. anaerobic, range stated for the group"}, "[6]": {"conditions": "range stated for the group of listed examples, read-out: Ki, inhibition of Clostridium difficile MetRS"}}, "note": "Structures can show the parent of a compound that is named as a salt. Where two headings read alike, the source gives them in different places."}
{"smiles": "O=c1cc(NCCCN[C@@H]2CCOc3c(Br)cc(Br)cc32)[nH]c2ccsc12", "note": "(single isomer, unassigned) [Example 2, di-hydrochloride]", "values": [{"measurement": "Ki", "setting": "[1]", "value": "15 to 25", "unit": "pM"}, {"measurement": "inhibition of mammalian (rat) MetRS", "setting": "rat MetRS", "value": "no inhibition"}, {"measurement": "MIC90", "setting": "C. difficile [2]; [5]", "value": "0.25 to 4", "unit": "µg/mL"}, {"measurement": "efficacy (survival) in infected hamsters, in words", "setting": "C. difficile [3]; MetRS inhibitor at 5 to 50 mg/kg, solution or suspension", "value": "best efficacy"}, {"measurement": "spores (ratio of spores to total cells) at 0.25×MIC", "setting": "[4]; all strains, 0.25×MIC", "value": "< 2", "unit": "%"}, {"measurement": "spores (ratio of spores to total cells) at 0.5×MIC", "setting": "[4]; all strains, 0.5×MIC", "value": "< 1", "unit": "%"}, {"measurement": "effect on spore production, in words", "setting": "[4]; subMIC concentrations", "value": "effective in preventing vegetative cells of C. difficile from forming spores"}]}
{"smiles": "O=c1cc(NCCCN[C@H]2CCOc3c(Br)cc(Br)cc32)[nH]c2ccsc12", "note": "(single isomer, unassigned) [Example 3, di-hydrochloride]", "values": [{"measurement": "Ki", "setting": "[1]", "value": "24000 to 80000", "unit": "pM"}]}
{"smiles": "O=c1cc(NCCCN[C@@H]2CCOc3c(Br)cc(Cl)cc32)[nH]c2ccsc12", "note": "(single isomer, unassigned) [Example 4, di-hydrochloride]", "values": [{"measurement": "Ki", "setting": "[1]", "value": "15 to 25", "unit": "pM"}, {"measurement": "inhibition of mammalian (rat) MetRS", "setting": "rat MetRS", "value": "no inhibition"}, {"measurement": "MIC90", "setting": "C. difficile [2]; 24 h", "value": "0.25 to 4", "unit": "µg/mL"}]}
{"smiles": "O=c1cc(NCCCN[C@H]2CCOc3c(Br)cc(Cl)cc32)[nH]c2ccsc12", "note": "(single isomer, unassigned) [Example 5, di-hydrochloride]", "values": [{"measurement": "Ki", "setting": "[1]", "value": "24000 to 80000", "unit": "pM"}]}
{"smiles": "O=c1cc(NCCCN[C@@H]2CCOc3c(Br)cc(Br)cc32)[nH]c2ccccc12", "note": "(single isomer, unassigned) [Example 6, di-hydrochloride]", "values": [{"measurement": "Ki", "setting": "[1]", "value": "15 to 25", "unit": "pM"}, {"measurement": "inhibition of mammalian (rat) MetRS", "setting": "rat MetRS", "value": "no inhibition"}, {"measurement": "MIC90", "setting": "C. difficile [2]; 24 h", "value": "0.25 to 4", "unit": "µg/mL"}]}
{"smiles": "O=c1cc(NCCCN[C@H]2CCOc3c(Br)cc(Br)cc32)[nH]c2ccccc12", "note": "(single isomer, unassigned) [Example 7, di-hydrochloride]", "values": [{"measurement": "Ki", "setting": "[1]", "value": "24000 to 80000", "unit": "pM"}]}
{"smiles": "O=c1cc(NCCCN[C@@H]2CCNc3c(Br)cc(Br)cc32)[nH]c2ccsc12", "note": "(single isomer, unassigned) [Example 8, tri-hydrochloride]", "values": [{"measurement": "Ki", "setting": "[1]", "value": "15 to 25", "unit": "pM"}, {"measurement": "inhibition of mammalian (rat) MetRS", "setting": "rat MetRS", "value": "no inhibition"}, {"measurement": "MIC90", "setting": "C. difficile [2]; 24 h", "value": "0.25 to 4", "unit": "µg/mL"}]}
{"smiles": "O=c1cc(NCCCN[C@H]2CCNc3c(Br)cc(Br)cc32)[nH]c2ccsc12", "note": "(single isomer, unassigned) [Example 9, tri-hydrochloride]", "values": [{"measurement": "Ki", "setting": "[1]", "value": "24000 to 80000", "unit": "pM"}]}
{"smiles": "O=c1cc(NCCCN[C@@H]2CCCc3c(Br)cc(Br)cc32)[nH]c2ccsc12", "note": "[Example 10, 5-[3-((R)-5,7-Dibromo-1,2,3,4-tetrahydro-naphthalen-1-ylamino)-propylamino]-4H-thieno[3,2-b]pyridine-7-one]", "values": [{"measurement": "Ki", "setting": "[1]; [6]", "value": "15 to 25", "unit": "pM"}, {"measurement": "inhibition of mammalian (rat) MetRS", "setting": "rat MetRS", "value": "no inhibition"}, {"measurement": "MIC90", "setting": "C. difficile [2]; [5]", "value": "0.25 to 4", "unit": "µg/mL"}]}
{"smiles": "O=c1cc(NCCCN[C@@H]2COc3c(Br)cc(Br)cc32)[nH]c2ccsc12", "note": "[Example 11, 5-[3-((S)-5,7-Dibromo-2,3-dihydro-benzofuran-3-ylamino)-propylamino]-4H-thieno[3,2-b]pyridine-7-one]", "values": [{"measurement": "Ki", "setting": "[1]; [6]", "value": "15 to 25", "unit": "pM"}, {"measurement": "inhibition of mammalian (rat) MetRS", "setting": "rat MetRS", "value": "no inhibition"}, {"measurement": "MIC90", "setting": "C. difficile [2]; [5]", "value": "0.25 to 4", "unit": "µg/mL"}]}
{"smiles": "O=c1cc(NCCCN[C@H]2COc3c(Br)cc(Br)cc32)[nH]c2ccsc12", "note": "[Example 12, 5-[3-((R)-5,7-Dibromo-2,3-dihydro-benzofuran-3-ylamino)-propylamino]-4H-thieno[3,2-b]pyridine-7-one]", "values": [{"measurement": "Ki", "setting": "[1]; [6]", "value": "24000 to 80000", "unit": "pM"}]}
{"smiles": "Cc1ncc([N+](=O)[O-])n1CCO", "note": "[metronidazole, reference compound]", "values": [{"measurement": "spores after exposure to subMIC concentrations", "setting": "[4]; all tested strains, subMIC", "value": "up to 100%"}]}
{"smiles": "CN[C@H](CC(C)C)C(=O)N[C@H]1C(=O)N[C@@H](CC(N)=O)C(=O)N[C@H]2C(=O)N[C@H]3C(=O)N[C@H](C(=O)N[C@H](C(=O)O)c4cc(O)cc(O)c4-c4cc3ccc4O)[C@H](O)c3ccc(c(Cl)c3)Oc3cc2cc(c3O[C@@H]2O[C@H](CO)[C@@H](O)[C@H](O)[C@H]2O[C@H]2C[C@](C)(N)[C@H](O)[C@H](C)O2)Oc2ccc(cc2Cl)[C@H]1O", "note": "[vancomycin, reference compound]", "values": [{"measurement": "survival on Day 28 (vancomycin comparator)", "setting": "C. difficile [3]; C. difficile-infected hamsters, vancomycin at 2.5, 5 or 25 mg/kg", "value": "0-10%"}]}
